Laboratory results reported in article PMC9697349, “Mouse Pharmacokinetics and In Vitro Metabolism of SH-11037 and SH-11008, Synthetic Homoisoflavonoids for Retinal Neovascularization” (Pharmaceutics, 2022).

How the values were obtained:
[1] = assay type: in vitro ADME; conditions: BNPP 1 mM, 2 h preincubation; SH-11037 1 µM, mouse eye homogenate, 1 min
Description: (§1) Chemical inhibition assay was conducted in mouse, dog, and human plasma and mouse eye homogenate to identify the enzyme(s) involved in the hydrolysis of SH-11037. BW284c51 [16], DTNB [17], EPZ [18], and BNPP [19, 20] were used as selective inhibitors of acetylcholinesterase (AChE), paraoxonase 1 (PON1), butyrylcholinesterase (BchE), and carboxylesterase (CES), respectively. Mouse eyes (male ICR mouse, 8 weeks old) taken immediately after CO2 asphyxiation were homogenized by an electric tissue homogenizer (Tissue Master-125, Omni International, Kennesaw, GA, USA) in an equal amount of 0.1 M potassium phosphate buffer (pH 7.4) on ice. The resulting homogenate was then centrifuged at 3000× g for 20 min. The supernatant was stored at −80 °C until the experiment. DMSO stock solutions of the inhibitors (0.4, 4 and 40 mM) were mixed with plasma diluted 3-fold with 0.1 M phosphate buffer (pH 7.4) to a final volume of 160 μL and final inhibitor concentrations of 0.01, 0.1, and 1 mM. The supernatant of mouse eye homogenate was treated similarly with only BNPP as the inhibitor and a single inhibitor concentration of 1 mM. The resulting pre-incubation solutions were then incubated for 2 h at 37 °C in a shaking water bath. SH-11037 (40 μM) in 50 vol% aqueous CH3CN was mixed with the pre-incubation solutions to a final volume of 160 μL and a final concentration of 1 μM. The resulting solutions were then incubated at 37 °C in a shaking water bath. The incubations were terminated at selected times by adding 160 µL of ice-cold CH3CN containing glipizide (500 ng/mL) as the IS. The resulting mixture was vortexed, sonicated, and centrifuged at 3000× g for 20 min. Aliquots of the supernatant were subjected to LC-MS/MS analysis described below in Section 2.6.2.
(§2) The LC-MS/MS system consisted of Agilent 1290 Infinity HPLC system and Agilent 6530 Accurate-Mass Quadrupole Time-of-Flight (Q-TOF) mass spectrometer equipped with dual AJS ESI ion source (Agilent Technologies Korea, Seoul, Korea). Chromatographic separation was performed on an Agilent Eclipse Plus C18 column (2.1 × 100 mm, 3.5 μm) with a Phenomenex Security Guard C18 guard column (4 × 20 mm) maintained at 40 °C. The mobile phase consisted of 0.1% formic acid in deionized water (A) and 0.1% formic acid in CH3CN (B): 0~2 min 5% B, 2~7 min to 95% B, and 7~10 min 95% B. Total run time including a 5 min equilibration time was 15 min. The flow rate was 0.4 mL/min. The injection volume was 5 µL. The mass spectrometer was operated in a positive Auto MS/MS scan mode with a full scan mass range of m/z 100–1000, fragmentor voltage 150 V, and CE 30 eV, selecting the two most intense precursor ions for collision-induced dissociation. Putative metabolites were identified using Agilent Mass Hunter Metabolite ID software (ver.B.04.00) followed by manual interpretation of the spectral data. Chromatograms and mass spectra were extracted using Agilent Mass Hunter Qualitative Analysis software (ver. B.05.00).

[2] = test system: hydrolysis of SH-11037 in mouse plasma; assay type: in vitro ADME; conditions: inhibitor 1 mM; SH-11037 1 µM, mouse plasma, 1 min, 37 °C
Description: as §1, §2

[3] = set-up: method as in PMID 30713251; conditions: cited from earlier work

| Compound | effect of inhibitor on SH-11037 hydrolysis [1] | SH-11008 Formation (%) in presence of inhibitor [2] | oral absorption [3] | systemic clearance (CL) [3] |
| --- | --- | --- | --- | --- |
| O=[N+]([O-])c1ccc(OP(=O)(O)Oc2ccc([N+](=O)[O-])cc2)cc1 [BNPP, bis(4-nitrophenyl)phosphate, reference compound] | inhibited the hydrolysis nearly completely | completely inhibited |  |  |
| COc1ccc(CC2COc3cc(O)c(OC)c(O)c3C2=O)cc1O (stereo not shown) [cremastranone, Cremastranone] |  |  | poor | high |
